# Results: patent US10281476B2, “Methods to identify modulators of RyR calcium channels” (REGENTS OF THE UNIVERSITY OF MINNESOTA, priority 2013, dated 2019)
# Where no end group is shown, it is not given here.
# What was measured:
# intact cardiac myocytes = assay: Spontaneous Ca2+ waves (SCW) in intact cardiac myocytes; assay type: cell-based, rat
# Description: (§1) Intact cardiomyocytes were loaded with Fluo-4 AM (5 μmol/L, Molecular Probes) for 15 min in NT solution (in mM): NaCl 140, KCl 4, MgCl2 1, CaCl2 2, glucose 10, HEPES 5, pH 7.4. Fluo-4 AM was excited at 488 nm and emission was recorded using a 500-530 nm bandpass filter. Ca^2+sparks were recorded after field stimulation at 1 Hz, and caffeine (10mmol/L) was rapidly perfused for assessing the SR Ca^2+content. Both Ca^2+sparks and SR Ca^2+content were recorded by using a laser scanning confocal microscope (RADIANCE2000™ MP, Bio-Rad, UK). Data were analyzed using SparkMaster, an automated analysis program that allows rapid and reliable spark analysis (Picht et al., J. Am J Physiol Cell Physiol. 2007;293:C1073-C1081). Spontaneous Ca^2+waves were recorded using a BZ9000 fluorescence digital microscope (Keyence, Japan), after 10 sec from field electric stimulation at 1,2,3,4 and 5 Hz, as described previously (Fukuda et al., Biochem Biophys Res Commun. 2014;448:1-7).
# RyR2 [1] = assay: RyR2 free thiol content by monobromobimane (mBB) fluorescence; assay type: cell-based, rat; settings: 50 μmol/L H2O2, with or without dantrolene pretreatment
# Description: (§2) Intracellular reactive oxygen species (ROS) formation was measured in rat cardiac myocytes using a fluorescent probe, 5-(and -6)-chloromethyl-2′,7′-dichlorodihydrofluoroscein diacetate (H2DCFDA, 10 μmol/L) (Terentyev et al., Circ Res. 2008; 103:1466-1472). This assay is widely used as a reliable method for the measurement of intracellular ROS such as hydrogen peroxide, hydroxyl radicals, and hydroperoxide. The H2DCFDA dye was excited with the 488 nm and emission was collected at 500-530 nm. The content of free thiols in RyR2 was determined based on the monobromobimane (mBB, Calbiochem) fluorescence intensity, as previously described (Terentyev et al., Circ Res. 2008; 103:1466-1472; Ho et al., J Physiol. 2011; 19:4697-4708). In brief, myocytes were incubated with mBB for 1 hr. Myocytes were then lysed in lysis buffer and loaded on 6% SDS-PAGE gels. The fluorescence emission intensity of the RyR2-bound mBB was measured at 482 nm by exciting at 382 nm. mBB fluorescence was normalized to the RyR2 amount, which was determined using quantitative densitometry of Coomassie Blue-stained gels.
# (§3) To monitor intracellular ROS level, we used H2DCFDA (10 μmol/L). […] To assess whether dantrolene can attenuate the extent of RyR2 thiol modification in H2O2-treated myocytes, we used a monobromobimane (mBB) fluorescence labeling assay.
# [2] = tested on: rat intact cardiomyocytes; assay: Ca2+ transients in intact cardiomyocytes; assay type: cell-based; settings: H2O2 50 μmol/L, dantrolene 1 μmol/L, 1 Hz
# Description: as §1
# (§4) Oxidation induced by hydrogen peroxide (H2O2) is expected to activate SR Ca^2+ leak through RyR2 at diastolic [Ca]i (Wagner et al., Circ Res. 2011; 108:555-65; Yan et al., Cardiovasc Res. 2008; 77:432-41). We used line-scan images to measure the effects of 50 μM/L H2O2 on Ca^2+ spark frequency (CaSpF) and SR Ca^2+ content (evaluated via rapid caffeine application) in intact cardiomyocytes after 1 Hz electric field stimulation (FIG. 25). […] Thus H2O2 may enhance diastolic RyR2 channel opening. […] So CaSpF normalized to SR Ca^2+ content, was significant increase by H2O2 treatment of myocytes (FIG. 25C).
# RyR2 [3] = molecular target: RyR2 (Rattus norvegicus, UniProt B0LPN4); assay: Fluorescent FKBP12.6 binding at the Z-line of permeabilized myocytes; parameters: These fluorescent proteins were added to saponin-permeabilized myocytes with or without pre-equilibration with saturating DPc10 concentration; endogenous in cells; host or cells: saponin-permeabilized rat ventricular myocytes
# Description: These fluorescent proteins were added to saponin-permeabilized myocytes with or without pre-equilibration with saturating DPc10 concentration. […] We also did this with high [CaM] (500 nmol/L) that saturates RyR2 with CaM under control conditions (without DPc10; FIG. 17C). […] To test whether DPc10 and CaM bind at the same or nearby RyR2 sites, we measured FRET between CaM and DPc10.
# FKBP12.6 can bind to and stabilize RyR2 channel gating, but details are controversial (Bers et al., Circ Res. 2012; 110:796-799). We measured the effect of H2O2 on FKBP12.6-RyR2 binding affinity in saponin-permeabilized myocytes using F-FKBP (Yang et al., Circ Res. 2014; 114:295-306; Cornea et al., Proc Natl Acad Sci USA. 2009; 106:6128-6133; Guo et al., Circ Res. 2010; 106:1743-1752; Guo et al., Biophys J. 2011; 101:2170-2177; Cornea et al., J Biol Chem. 2010; 285:19219-19226). […] We used 1 nmol/L F-FKBP (the its Kd) (Guo et al., Circ Res. 2010; 106:1743-1752), because at half-saturation it would be very sensitive to either an increase or decrease in RyR2 binding.
# [4] = tested on: intracellular reactive oxygen species (ROS); assay: Intracellular ROS by H2DCFDA fluorescence; assay type: cell-based, rat; settings: 50 μmol/L H2O2, with or without dantrolene pretreatment
# Description: as §2, §3
# [5] = tested on: rat intact cardiomyocytes; assay: Ca2+ sparks and SR Ca2+ content in intact cardiomyocytes; assay type: cell-based; settings: for Ca2+ spark Amplitude (ΔF/F0) / Ca2+ spark FDHM / Ca2+ spark FWHM: H2O2 50 μmol/L, dantrolene 1 μmol/L
# Description: as §1, §4
# Sequence of RyR2 (Rattus norvegicus, UniProt B0LPN4) (B0LPN4 whole entry): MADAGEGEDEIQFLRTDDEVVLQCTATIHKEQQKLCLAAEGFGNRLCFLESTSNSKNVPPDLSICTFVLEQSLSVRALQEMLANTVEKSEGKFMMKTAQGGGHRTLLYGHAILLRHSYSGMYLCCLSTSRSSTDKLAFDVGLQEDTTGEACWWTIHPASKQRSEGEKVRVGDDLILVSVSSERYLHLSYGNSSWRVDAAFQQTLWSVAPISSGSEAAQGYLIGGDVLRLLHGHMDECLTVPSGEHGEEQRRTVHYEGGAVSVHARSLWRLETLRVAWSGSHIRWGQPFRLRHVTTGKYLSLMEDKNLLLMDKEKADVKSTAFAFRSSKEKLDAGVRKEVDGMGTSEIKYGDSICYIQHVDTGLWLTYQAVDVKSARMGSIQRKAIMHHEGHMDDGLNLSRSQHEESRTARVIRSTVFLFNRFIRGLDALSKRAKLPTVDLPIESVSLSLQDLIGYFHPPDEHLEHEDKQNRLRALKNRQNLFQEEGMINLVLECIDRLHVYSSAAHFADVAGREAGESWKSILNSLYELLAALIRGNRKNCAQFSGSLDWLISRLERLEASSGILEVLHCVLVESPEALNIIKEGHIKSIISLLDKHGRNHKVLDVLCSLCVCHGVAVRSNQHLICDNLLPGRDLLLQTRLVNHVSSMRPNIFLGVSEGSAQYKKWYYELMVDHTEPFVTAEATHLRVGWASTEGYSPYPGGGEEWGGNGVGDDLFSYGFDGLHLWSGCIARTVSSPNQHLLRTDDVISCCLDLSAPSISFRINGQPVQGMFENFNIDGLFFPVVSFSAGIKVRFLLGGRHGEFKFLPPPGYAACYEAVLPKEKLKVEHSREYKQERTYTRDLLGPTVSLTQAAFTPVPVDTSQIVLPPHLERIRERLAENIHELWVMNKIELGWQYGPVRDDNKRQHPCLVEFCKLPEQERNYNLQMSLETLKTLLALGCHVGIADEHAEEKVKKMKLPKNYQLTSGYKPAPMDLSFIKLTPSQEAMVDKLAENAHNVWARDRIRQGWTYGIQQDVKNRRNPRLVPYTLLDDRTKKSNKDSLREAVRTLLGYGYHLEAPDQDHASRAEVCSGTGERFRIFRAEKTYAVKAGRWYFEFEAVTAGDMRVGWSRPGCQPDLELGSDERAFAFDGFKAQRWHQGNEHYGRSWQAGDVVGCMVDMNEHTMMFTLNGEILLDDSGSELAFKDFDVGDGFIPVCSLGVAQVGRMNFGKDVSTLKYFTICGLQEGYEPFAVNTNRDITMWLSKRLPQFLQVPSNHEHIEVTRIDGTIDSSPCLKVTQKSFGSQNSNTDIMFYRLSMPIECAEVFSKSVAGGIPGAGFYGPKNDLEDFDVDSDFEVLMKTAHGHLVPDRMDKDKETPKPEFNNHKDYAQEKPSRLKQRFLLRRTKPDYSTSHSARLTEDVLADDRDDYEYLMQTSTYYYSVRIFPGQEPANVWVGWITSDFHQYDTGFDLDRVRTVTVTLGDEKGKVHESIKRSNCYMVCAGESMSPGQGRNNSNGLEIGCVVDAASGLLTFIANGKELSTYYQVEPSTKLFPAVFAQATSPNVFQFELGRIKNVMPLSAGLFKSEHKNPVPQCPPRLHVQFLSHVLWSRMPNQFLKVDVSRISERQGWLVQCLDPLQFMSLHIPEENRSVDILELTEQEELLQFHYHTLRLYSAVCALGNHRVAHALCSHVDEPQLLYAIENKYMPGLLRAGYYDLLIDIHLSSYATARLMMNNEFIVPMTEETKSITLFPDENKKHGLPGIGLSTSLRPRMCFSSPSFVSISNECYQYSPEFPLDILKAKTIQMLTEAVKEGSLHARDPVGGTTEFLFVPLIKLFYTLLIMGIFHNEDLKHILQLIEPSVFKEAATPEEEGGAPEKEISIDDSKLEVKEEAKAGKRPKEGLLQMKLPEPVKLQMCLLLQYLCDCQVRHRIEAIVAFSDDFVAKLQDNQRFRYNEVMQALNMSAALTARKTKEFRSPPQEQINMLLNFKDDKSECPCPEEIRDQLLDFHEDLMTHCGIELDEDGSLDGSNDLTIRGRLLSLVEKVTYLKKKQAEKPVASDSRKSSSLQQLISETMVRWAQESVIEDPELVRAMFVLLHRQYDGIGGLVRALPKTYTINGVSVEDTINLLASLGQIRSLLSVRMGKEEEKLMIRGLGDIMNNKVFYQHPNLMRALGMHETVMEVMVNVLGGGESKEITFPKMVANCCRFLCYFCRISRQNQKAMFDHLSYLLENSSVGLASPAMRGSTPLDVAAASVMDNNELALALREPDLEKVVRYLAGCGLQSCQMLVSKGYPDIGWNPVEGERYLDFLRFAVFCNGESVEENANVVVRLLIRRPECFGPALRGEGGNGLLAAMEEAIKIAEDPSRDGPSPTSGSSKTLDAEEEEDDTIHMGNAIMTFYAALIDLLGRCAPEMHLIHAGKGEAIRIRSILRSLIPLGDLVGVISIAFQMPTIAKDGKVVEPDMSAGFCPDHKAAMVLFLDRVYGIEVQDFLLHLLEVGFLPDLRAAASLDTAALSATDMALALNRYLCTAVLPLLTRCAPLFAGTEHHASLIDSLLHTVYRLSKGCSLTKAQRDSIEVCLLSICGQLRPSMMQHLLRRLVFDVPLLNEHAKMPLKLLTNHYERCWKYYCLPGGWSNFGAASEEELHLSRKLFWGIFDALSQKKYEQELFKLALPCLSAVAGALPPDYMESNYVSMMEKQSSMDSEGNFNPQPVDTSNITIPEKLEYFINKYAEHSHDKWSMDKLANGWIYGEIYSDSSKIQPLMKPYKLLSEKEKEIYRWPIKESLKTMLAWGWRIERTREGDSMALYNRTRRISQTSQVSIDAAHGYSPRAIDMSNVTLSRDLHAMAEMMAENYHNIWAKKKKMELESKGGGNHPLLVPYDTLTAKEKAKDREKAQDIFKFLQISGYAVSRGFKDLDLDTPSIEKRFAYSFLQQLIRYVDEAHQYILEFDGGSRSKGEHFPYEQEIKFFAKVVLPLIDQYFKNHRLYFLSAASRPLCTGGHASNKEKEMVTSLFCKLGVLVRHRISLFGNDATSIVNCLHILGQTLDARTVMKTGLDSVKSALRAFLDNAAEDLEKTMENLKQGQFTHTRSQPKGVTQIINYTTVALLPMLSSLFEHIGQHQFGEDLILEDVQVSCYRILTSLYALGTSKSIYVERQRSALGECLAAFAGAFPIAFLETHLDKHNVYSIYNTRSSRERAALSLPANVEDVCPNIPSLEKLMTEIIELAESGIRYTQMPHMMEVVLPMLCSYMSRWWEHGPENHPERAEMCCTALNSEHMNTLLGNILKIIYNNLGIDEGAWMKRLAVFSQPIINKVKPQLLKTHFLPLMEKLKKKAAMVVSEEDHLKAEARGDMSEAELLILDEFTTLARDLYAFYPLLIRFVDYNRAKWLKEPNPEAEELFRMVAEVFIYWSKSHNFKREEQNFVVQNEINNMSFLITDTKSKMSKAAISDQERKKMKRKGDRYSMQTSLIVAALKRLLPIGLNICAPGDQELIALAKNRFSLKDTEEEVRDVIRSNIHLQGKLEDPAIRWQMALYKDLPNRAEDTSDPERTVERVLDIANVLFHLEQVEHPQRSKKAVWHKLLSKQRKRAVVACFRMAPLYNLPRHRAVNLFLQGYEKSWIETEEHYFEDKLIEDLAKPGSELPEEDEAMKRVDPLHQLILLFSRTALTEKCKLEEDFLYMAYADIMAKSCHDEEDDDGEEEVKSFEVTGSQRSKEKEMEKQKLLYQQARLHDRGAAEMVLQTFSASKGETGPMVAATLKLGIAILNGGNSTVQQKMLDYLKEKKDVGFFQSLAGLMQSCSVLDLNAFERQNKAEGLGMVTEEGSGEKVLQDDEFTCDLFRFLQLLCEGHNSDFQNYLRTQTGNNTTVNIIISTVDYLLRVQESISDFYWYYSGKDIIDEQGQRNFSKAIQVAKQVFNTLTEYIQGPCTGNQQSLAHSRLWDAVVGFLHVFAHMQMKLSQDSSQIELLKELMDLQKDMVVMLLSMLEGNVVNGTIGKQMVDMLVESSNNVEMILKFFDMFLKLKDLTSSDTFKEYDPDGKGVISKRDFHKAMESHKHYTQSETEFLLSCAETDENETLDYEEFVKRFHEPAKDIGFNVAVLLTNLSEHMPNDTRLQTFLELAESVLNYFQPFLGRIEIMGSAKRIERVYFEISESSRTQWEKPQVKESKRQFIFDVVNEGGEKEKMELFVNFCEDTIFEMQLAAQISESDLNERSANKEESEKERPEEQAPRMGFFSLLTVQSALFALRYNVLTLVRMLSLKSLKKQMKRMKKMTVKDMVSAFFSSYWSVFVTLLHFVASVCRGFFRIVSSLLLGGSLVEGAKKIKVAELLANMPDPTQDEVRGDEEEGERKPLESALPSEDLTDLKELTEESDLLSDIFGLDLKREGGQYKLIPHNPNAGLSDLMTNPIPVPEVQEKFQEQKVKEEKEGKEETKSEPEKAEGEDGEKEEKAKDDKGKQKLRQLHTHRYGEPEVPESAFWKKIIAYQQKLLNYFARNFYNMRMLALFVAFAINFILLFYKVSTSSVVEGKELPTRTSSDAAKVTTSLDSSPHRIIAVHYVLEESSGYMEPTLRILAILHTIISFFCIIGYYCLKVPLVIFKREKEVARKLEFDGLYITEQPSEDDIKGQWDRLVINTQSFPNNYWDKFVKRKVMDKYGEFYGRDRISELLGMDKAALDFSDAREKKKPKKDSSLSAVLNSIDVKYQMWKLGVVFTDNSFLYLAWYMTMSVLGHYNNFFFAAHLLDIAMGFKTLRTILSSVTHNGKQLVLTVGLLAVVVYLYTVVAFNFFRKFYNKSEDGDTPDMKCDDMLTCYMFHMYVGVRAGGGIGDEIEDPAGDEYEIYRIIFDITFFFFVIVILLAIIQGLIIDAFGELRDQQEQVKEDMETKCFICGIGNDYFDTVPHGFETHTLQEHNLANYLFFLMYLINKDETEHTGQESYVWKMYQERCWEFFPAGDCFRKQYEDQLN
# Sequence of RyR2 (Rattus norvegicus, UniProt B0LPN4) (P68106 with tags, fused parts or gaps T15C/C23A/C77I partner): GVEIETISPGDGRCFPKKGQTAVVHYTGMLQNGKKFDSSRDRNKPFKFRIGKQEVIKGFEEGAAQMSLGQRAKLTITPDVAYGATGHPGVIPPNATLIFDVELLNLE
Compound,occurrence of SCW vs. control (intact cardiac myocytes; pacing rate increased from 1 to 5 Hz),content of free thiols on RyR2 / RyR2 oxidation level (RyR2 [1]),Tau [Ca]i decline [2] [s],Δ [Ca]i twitch (ΔF/F0) [2],"effect on F-FKBP binding to the RyR2 (RyR2 [3]; 1 nmol/L F-FKBP, H2O2 50 μmol/L, with or without AIP or dantrolene)",intracellular ROS level [4],"CaSpF compared with control ([5]; 50 μM/L H2O2, after 1 Hz stimulation)",Ca2+ spark Amplitude (ΔF/F0) [5],Ca2+ spark FDHM [5] [ms],Ca2+ spark FWHM [5] [μm],SR Ca2+ content ([5]; intact myocytes),effect on H2O2-induced increase in frequency of SCW (intact cardiac myocytes; dantrolene added before H2O2),effect on H2O2-induced increase in frequency of Ca2+ sparks ([5]; dantrolene added before H2O2),effect on control myocytes (Ca2+ sparks and SCW) ([5]; no H2O2),"effect on FKBP12.6 binding to RyR2 (RyR2 [3]; AF488-FKBP12.6 1 nmol/L, preincubation with 5 μmol/L DPc10)"
"OO [H2O2, hydrogen peroxide]",significantly increased,significantly decreased,0.32 ± 0.01,2.56 ± 0.19 ΔF/F0,failed to alter,increased,significantly increased,0.57 ± 0.01 ΔF/F0,67.05 ± 3.25,2.04 ± 0.07,did not significantly alter,,,,
O=C1CN(/N=C/c2ccc(-c3ccc([N+](=O)[O-])cc3)o2)C(O)=N1 [dantrolene],,did not attenuate,0.31 ± 0.01,2.35 ± 0.16 ΔF/F0,,does not alter,,0.55 ± 0.01 ΔF/F0,61.98 ± 3.35,1.93 ± 0.09,,suppressed,suppressed,had no effect,
GFCPDHKAAMVLFLDRVYGIEVQDFLLHLLEVGFLP [DPc10],,,,,,,,,,,,,,,does not influence
